Measured values: US11414416B1, “Compounds and uses thereof” (Foghorn Therapeutics Inc., priority 2019, dated 2022)

Legend:
[1] = biological target: Nanoluciferase-BRD9 fusion protein (Homo sapiens (Human), UniProt Q9H8M2); assay: SYO1 BRD9 NanoLuc degradation assay; format: cell-based; settings: Table 5A, SYO-1 cells expressing 3×FLAG-NLuc-BRD9, 6 hours; for DC50: read-out: SYO1 BRD9-NanoLuc degradation IC50
In short: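 Degradation was read as loss of nanoluciferase signal (Nano-Glo) after 6 h compound exposure in a stable SYO-1 line carrying 3×FLAG-NLuc-BRD9 (8000 cells/well). Normalised between DMSO (high) and a 1 μM known BRD9 degrader (low).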

BRD9 bromodomain = BRD9 bromodomain (Homo sapiens (Human), UniProt Q9H8M2); assay: BRD9 bromodomain TR-FRET competition binding assay; settings: Table 4; competition with biotinylated ligand, 3 nM Flag-BRD9, 90 minutes
Procedure: Procedure: His-Flag-BRD9 (P133-K239; Swiss Prot Q9H8M2; SEQ ID NO:1 mgsshhhhhhenlyfq/gdykddddkgslevlfqg/[…] […]) was cloned, expressed, purified, and then treated with TEV protease. Cleaved His tag was removed by purification. The binding of a biotinylated small molecule ligand of BRD9 was assessed via the LANCE® TR-FRET platform (PerkinElmer), and the compounds were assayed for inhibitory activity against this interaction.
A mixture of biotinylated-ligand and SureLight™ Allophycocyanin-Streptavidin (APC-SA, PerkinElmer AD0201) in 50 mM HEPES (pH 7.4), 50 mM NaCl, 1 mM TCEP (pH 7), 0.01% (v/v) Tween-20, 0.01% (w/v) bovine serum albumin was added to a white 384-well PerkinElmer Proxiplate Plus plate. DMSO or 3-fold serially diluted compounds were then added to the Proxiplate followed by addition of Flag-BRD9. After a 10-minute incubation at room temperature, Eu-W1024 anti-FLAG (PerkinElmer, AD0273) was added. The final reaction mixture that contained 3.75 nM biotinylated ligand, 3 nM Flag-BRD9, 7.5 nM SureLight™ Allophycocyanin-Streptavidin, and 0.2 nM Eu-W1024 anti-FLAG was incubated at room temperature for 90 minutes.
Results: The plates were then read on a PerkinElmer Envision plate reader to determine the ratio of emission at 665 nm over 615 nm. […]

Nanoluciferase-BRD9 fusion protein, sequence (Q9H8M2 whole entry, the tested form may be a part): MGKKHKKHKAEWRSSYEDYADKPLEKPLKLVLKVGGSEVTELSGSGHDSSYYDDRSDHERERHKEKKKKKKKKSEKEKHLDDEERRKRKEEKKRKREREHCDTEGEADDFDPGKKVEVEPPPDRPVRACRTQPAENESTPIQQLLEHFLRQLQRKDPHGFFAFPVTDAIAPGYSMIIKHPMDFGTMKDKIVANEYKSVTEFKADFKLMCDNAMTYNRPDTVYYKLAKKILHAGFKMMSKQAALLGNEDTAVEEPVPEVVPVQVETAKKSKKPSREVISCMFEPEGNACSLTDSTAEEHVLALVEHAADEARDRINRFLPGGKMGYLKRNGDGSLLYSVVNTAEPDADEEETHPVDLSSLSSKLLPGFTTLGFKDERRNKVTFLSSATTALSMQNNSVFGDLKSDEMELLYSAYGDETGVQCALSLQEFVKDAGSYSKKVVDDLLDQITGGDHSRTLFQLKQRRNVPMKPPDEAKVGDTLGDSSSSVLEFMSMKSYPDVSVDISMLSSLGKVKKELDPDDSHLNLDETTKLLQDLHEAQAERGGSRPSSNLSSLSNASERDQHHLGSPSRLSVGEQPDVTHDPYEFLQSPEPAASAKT
BRD9 bromodomain, sequence (Q9H8M2 133-239): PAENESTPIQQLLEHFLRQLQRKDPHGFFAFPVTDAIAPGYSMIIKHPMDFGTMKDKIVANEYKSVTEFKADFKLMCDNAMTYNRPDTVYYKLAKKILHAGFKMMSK

| Structure (SMILES) | DC50 [1] [nM] | IC50 (BRD9 bromodomain) [nM] | IC50 [1] [nM] |
| --- | --- | --- | --- |
| COc1cc(-c2cn(C)c(=O)c3cnccc23)cc(OC)c1CN1CC(C(=O)NCCCCCCCCNc2cccc3c2C(=O)N(C2CCC(=O)NC2=O)C3=O)C1 (stereo not drawn) [Compound D1, 1-[[2,6-dimethoxy-4-(2-methyl-1-oxo-1,2-dihydro-2,7-naphthyridin-4-yl)phenyl]methyl]-N-(8-[[2-(2,6-dioxopiperidin-3-yl)-1,3-dioxo-2,3-dihydro-1H-isoindol-4-yl]amino]octyl)azetidine-3-carboxamide formic acid] |  | 10 to 100 | < 10 |
| COc1cc(-c2cn(C)c(=O)c3cnccc23)cc(OC)c1CN1CCC(OC2CCN(C(=O)CCOCCOc3cccc4c3C(=O)N(C3CCC(=O)NC3=O)C4=O)CC2)CC1 (stereo not drawn) [Compound D97] | 10 to 100 | < 10 |  |
| COc1cc(-c2cn(C)c(=O)c3cnccc23)cc(OC)c1CN1CCN(C(=O)C2CC2CNC(=O)COc2ccc3c(c2)C(=O)N(C2CCC(=O)NC2=O)C3=O)CC1 (stereo not drawn) [Compound D66, N-[[2-(4-[[2,6-dimethoxy-4-(2-methyl-1-oxo-2,7-naphthyridin-4-yl)phenyl]methyl]piperazine-1-carbonyl)cyclopropyl]methyl]-2-[[2-(2,6-dioxopiperidin-3-yl)-1,3-dioxoisoindol-5-yl]oxy]acetamide formic acid] |  | 10 to 100 | 100 to 1000 |
| COc1cc(-c2cn(C)c(=O)c3cnccc23)cc(OC)c1CN(C)CC1CC2(CCN(C(=O)CCOCCOc3ccc4c(c3)C(=O)N(C3CCC(=O)NC3=O)C4=O)CC2)C1 (stereo not drawn) [Compound D175] |  | 10 to 100 | 10 to 100 |
| COc1cc(-c2cn(C)c(=O)c3cnccc23)cc(OC)c1CN1CCC2(C[C@@H]2NC(=O)CCOCCOc2cccc3c2C(=O)N(C2CCC(=O)NC2=O)C3=O)C1 (stereo partly drawn) [Compound D112] | 100 to 1000 | < 10 |  |
| COc1cc(-c2cn(C)c(=O)c3cnccc23)cc(OC)c1CNCCCN1CC(Oc2ccc3c(c2)C(=O)N(C2CCC(=O)NC2=O)C3=O)C1 (stereo not drawn) [Compound D31, 5-((1-(3-((2,6-dimethoxy-4-(2-methyl-1-oxo-1,2-dihydro-2,7-naphthyridin-4-yl)benzyl)amino)propyl)azetidin-3-yl)oxy)-2-(2,6-dioxopiperidin-3-yl)isoindoline-1,3-dione formic acid] | 10 to 100 | < 10 |  |
| COc1cc(-c2cn(C)c(=O)c3cnccc23)cc(OC)c1CN(C)CC12CC(C(=O)NCCOCCOCCNc3cccc4c3C(=O)N(C3CCC(=O)NC3=O)C4=O)(C1)C2 (stereo not drawn) [Compound D55, 3-[([[2,6-dimethoxy-4-(2-methyl-1-oxo-2,7-naphthyridin-4-yl)phenyl]methyl](methyl)amino)methyl]-N-[2-[2-(2-[[2-(2,6-dioxopiperidin-3-yl)-1,3-dioxoisoindol-4-yl]amino]ethoxy)ethoxy]ethyl]bicyclo[1.1.1]pentane-1-carboxamide] |  | 10 to 100 | 100 to 1000 |
| COc1cc(-c2cn(C)c(=O)c3cnccc23)cc(OC)c1CN1CCC2(C1)CN(C(=O)CCOCCOc1ccc3c(c1)C(=O)N(C1CCC(=O)NC1=O)C3=O)C2 (stereo not drawn) [Compound D99] |  | 10 to 100 | 10 to 100 |
| COc1cc(-c2cn(C)c(=O)c3cnccc23)cc(OC)c1CN1CCC2(CCN(C(=O)CCOCCOc3ccc4c(c3)C(=O)N(C3CCC(=O)NC3=O)C4=O)CC2)C1 (stereo not drawn) [Compound D120] |  | 10 to 100 | 10 to 100 |
| COc1cc(-c2cn(C)c(=O)c3cnccc23)cc(OC)c1CN1CC2(C1)CN(C(=O)CCCOc1cccc3c1C(=O)N(C1CCC(=O)NC1=O)C3=O)C2 (stereo not drawn) [Compound D32, 4-(4-(6-(2,6-dimethoxy-4-(2-methyl-1-oxo-1,2-dihydro-2,7-naphthyridin-4-yl)benzyl)-2,6-diazaspiro[3.3]heptan-2-yl)-4-oxobutoxy)-2-(2,6-dioxopiperidin-3-yl)isoindoline-1,3-dione] | 10 to 100 | < 10 |  |
| COc1cc(-c2cn(C)c(=O)c3cnccc23)cc(OC)c1CN1CC2C1CCN2C(=O)CCOCCOc1ccc2c(c1)C(=O)N(C1CCC(=O)NC1=O)C2=O (stereo not drawn) [Compound D128] |  | 10 to 100 | < 10 |
| COc1cc(-c2cn(C)c(=O)c3cnccc23)cc(OC)c1CN1CC2(CCC2NC(=O)CCOCCOc2ccc3c(c2)C(=O)N(C2CCC(=O)NC2=O)C3=O)C1 (stereo not drawn) [Compound D115] |  | 10 to 100 | 100 to 1000 |
| COc1cc(-c2cn(C)c(=O)c3cnccc23)cc(OC)c1CN1CC2CN(C(=O)CCOCCOc3cccc4c3C(=O)N(C3CCC(=O)NC3=O)C4=O)CCC21 (stereo not drawn) [Compound D92] |  | < 10 |  |

Second part, the compound after the results:

| DC50 [1] [nM] | IC50 (BRD9 bromodomain) [nM] | IC50 [1] [nM] | Structure (SMILES) |
| --- | --- | --- | --- |
| 10 to 100 | < 10 |  | COc1cc(-c2cn(C)c(=O)c3cnccc23)cc(OC)c1CN(C)CC1CC2(C1)CN(C(=O)CCOCCOc1cccc3c1C(=O)N(C1CCC(=O)NC1=O)C3=O)C2 (stereo not drawn) [Compound D164] |
| 10 to 100 | < 10 |  | COc1cc(-c2cn(C)c(=O)c3cnccc23)cc(OC)c1CN1CC(C(=O)NCCCCCCCCNC(=O)COc2cccc3c2C(=O)N(C2CCC(=O)NC2=O)C3=O)C1 (stereo not drawn) [Compound D4, N-[8-[(1-[[2,6-dimethoxy-4-(2-methyl-1-oxo-1,2-dihydro-2,7-naphthyridin-4-yl)phenyl]methyl]azetidin-3-yl)formamido]octyl]-2-[[2-(2,6-dioxopiperidin-3-yl)-1,3-dioxo-2,3-dihydro-1H-isoindol-4-yl]oxy]acetamide formic acid] |
| 10 to 100 | < 10 |  | COc1cc(-c2cn(C)c(=O)c3cnccc23)cc(OC)c1CN1CC2(CC(NC(=O)CCOCCOc3cccc4c3C(=O)N(C3CCC(=O)NC3=O)C4=O)C2)C1 (stereo not drawn) [Compound D93] |
| 10 to 100 | < 10 |  | COc1cc(-c2cn(C)c(=O)c3cnccc23)cc(OC)c1CN1CCC2(C1)CN(C(=O)CCOCCOc1cccc3c1C(=O)N(C1CCC(=O)NC1=O)C3=O)C2 (stereo not drawn) [Compound D87] |
|  | 10 to 100 | < 10 | COc1cc(-c2cn(C)c(=O)c3cnccc23)cc(OC)c1CN(C)CC(=O)NCCCCN1CCOC2(CCN(c3ccc4c(c3)C(=O)N(C3CCC(=O)NC3=O)C4=O)CC2)C1 (stereo not drawn) [Compound D73, 2-([[2,6-dimethoxy-4-(2-methyl-1-oxo-2,7-naphthyridin-4-yl)phenyl]methyl](methyl)amino)-N-(4-[9-[2-(2,6-dioxopiperidin-3-yl)-1,3-dioxoisoindol-5-yl]-1-oxa-4,9-diazaspiro[5.5]undecan-4-yl]butyl)acetamide formic acid] |
|  | 10 to 100 | 10 to 100 | COc1cc(-c2cn(C)c(=O)c3cnccc23)cc(OC)c1CN1CCC2CCN(C(=O)CCOCCOc3cccc4c3C(=O)N(C3CCC(=O)NC3=O)C4=O)CC21 (stereo not drawn) [Compound D91] |
|  | 10 to 100 | 10 to 100 | COc1cc(-c2cn(C)c(=O)c3cnccc23)cc(OC)c1CN(C)C1CC2CC1CN2C(=O)CCOCCOc1cccc2c1C(=O)N(C1CCC(=O)NC1=O)C2=O (stereo not drawn) [Compound D162] |
|  | < 10 | < 10 | COc1cc(-c2cn(C)c(=O)c3cnccc23)cc(OC)c1CN1CCC(OC2CCN(C(=O)CCOCCOc3ccc4c(c3)C(=O)N(C3CCC(=O)NC3=O)C4=O)CC2)CC1 (stereo not drawn) [Compound D131] |
|  | < 10 | < 10 | COc1cc(-c2cn(C)c(=O)c3cnccc23)cc(OC)c1CN(C)CC1CC2CN(C(=O)CCOCCOc3ccc4c(c3)C(=O)N(C3CCC(=O)NC3=O)C4=O)C[C@@H]2C1 (stereo partly drawn) [Compound D176] |
| 10 to 100 | < 10 |  | COc1cc(-c2cn(C)c(=O)c3cnccc23)cc(OC)c1CN1CCC2(CC1)CC(NC(=O)CCOCCOc1ccc3c(c1)C(=O)N(C1CCC(=O)NC1=O)C3=O)C2 (stereo not drawn) [Compound D116] |
